From ChEMBL document CHEMBL1914417 (Bioorg Med Chem Lett, 2011)
The source made the active and inactive calls. No cut-off for these calls is given here.

Key:
Format in all cases: functional, cell-based
[1] = target: T1, Muscarinic acetylcholine receptor M1 (Rattus norvegicus) (UniProt P08482); assay: Agonist activity at rat muscarinic M1 receptor expressed in CHO cells at 10 uM
T1 sequence (whole entry): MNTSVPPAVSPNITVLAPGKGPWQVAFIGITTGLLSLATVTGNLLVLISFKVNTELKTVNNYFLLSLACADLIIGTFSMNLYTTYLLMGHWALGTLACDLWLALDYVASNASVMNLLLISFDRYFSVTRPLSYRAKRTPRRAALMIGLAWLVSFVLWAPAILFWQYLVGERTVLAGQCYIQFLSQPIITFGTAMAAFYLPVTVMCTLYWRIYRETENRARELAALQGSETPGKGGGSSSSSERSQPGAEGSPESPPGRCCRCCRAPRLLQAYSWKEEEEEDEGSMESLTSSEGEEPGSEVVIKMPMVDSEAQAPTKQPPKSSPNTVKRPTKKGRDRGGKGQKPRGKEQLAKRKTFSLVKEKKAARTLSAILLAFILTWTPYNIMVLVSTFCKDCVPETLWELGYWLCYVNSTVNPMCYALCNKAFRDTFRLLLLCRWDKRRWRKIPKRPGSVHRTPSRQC

[2] = target: T1, Muscarinic acetylcholine receptor M1 (Rattus norvegicus); assay: Agonist activity at rat muscarinic M1 receptor expressed in CHO cells relative to acetylcholine
[3] = target: Muscarinic acetylcholine receptor M3 (Rattus norvegicus, UniProt P08483); assay: Agonist activity at rat muscarinic M3 receptor expressed in CHO cells
[4] = target: T2, Muscarinic acetylcholine receptor M4 (Rattus norvegicus, UniProt P08485); assay: Agonist activity at rat muscarinic M4 receptor expressed in CHO cells
T2 sequence (P08485 whole entry): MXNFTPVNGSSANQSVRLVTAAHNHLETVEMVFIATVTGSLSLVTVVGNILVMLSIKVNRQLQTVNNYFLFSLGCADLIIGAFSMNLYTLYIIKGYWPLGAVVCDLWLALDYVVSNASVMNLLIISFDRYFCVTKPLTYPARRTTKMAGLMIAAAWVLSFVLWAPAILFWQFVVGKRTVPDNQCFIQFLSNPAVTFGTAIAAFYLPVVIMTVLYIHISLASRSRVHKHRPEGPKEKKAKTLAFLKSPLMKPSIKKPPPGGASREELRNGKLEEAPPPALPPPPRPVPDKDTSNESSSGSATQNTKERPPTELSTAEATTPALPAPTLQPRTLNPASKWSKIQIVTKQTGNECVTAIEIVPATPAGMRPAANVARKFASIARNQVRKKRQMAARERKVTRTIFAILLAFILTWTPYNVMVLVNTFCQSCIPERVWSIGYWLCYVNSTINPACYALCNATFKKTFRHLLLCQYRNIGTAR

[5] = target: T3, Muscarinic acetylcholine receptor M5 (Rattus norvegicus, UniProt P08911); assay: Agonist activity at rat muscarinic M5 receptor expressed in CHO cells
T3 sequence (P08911 whole entry): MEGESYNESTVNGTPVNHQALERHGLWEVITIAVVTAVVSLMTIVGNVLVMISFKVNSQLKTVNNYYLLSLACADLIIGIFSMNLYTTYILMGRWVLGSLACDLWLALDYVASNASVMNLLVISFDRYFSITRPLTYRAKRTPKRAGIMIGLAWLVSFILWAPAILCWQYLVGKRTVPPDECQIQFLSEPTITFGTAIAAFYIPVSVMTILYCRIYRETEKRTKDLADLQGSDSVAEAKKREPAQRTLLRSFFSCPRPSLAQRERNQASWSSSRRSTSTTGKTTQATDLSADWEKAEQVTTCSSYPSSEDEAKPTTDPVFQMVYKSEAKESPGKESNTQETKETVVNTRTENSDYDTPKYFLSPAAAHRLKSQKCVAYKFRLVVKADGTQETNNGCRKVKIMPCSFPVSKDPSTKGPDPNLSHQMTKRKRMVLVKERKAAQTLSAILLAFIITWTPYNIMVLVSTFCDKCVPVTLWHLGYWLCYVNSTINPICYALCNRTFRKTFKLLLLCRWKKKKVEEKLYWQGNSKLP

[6] = target: T4, Muscarinic acetylcholine receptor M2 (Rattus norvegicus, UniProt P10980); assay: Agonist activity at rat muscarinic M2 receptor expressed in CHO cells
T4 sequence (P10980 whole entry): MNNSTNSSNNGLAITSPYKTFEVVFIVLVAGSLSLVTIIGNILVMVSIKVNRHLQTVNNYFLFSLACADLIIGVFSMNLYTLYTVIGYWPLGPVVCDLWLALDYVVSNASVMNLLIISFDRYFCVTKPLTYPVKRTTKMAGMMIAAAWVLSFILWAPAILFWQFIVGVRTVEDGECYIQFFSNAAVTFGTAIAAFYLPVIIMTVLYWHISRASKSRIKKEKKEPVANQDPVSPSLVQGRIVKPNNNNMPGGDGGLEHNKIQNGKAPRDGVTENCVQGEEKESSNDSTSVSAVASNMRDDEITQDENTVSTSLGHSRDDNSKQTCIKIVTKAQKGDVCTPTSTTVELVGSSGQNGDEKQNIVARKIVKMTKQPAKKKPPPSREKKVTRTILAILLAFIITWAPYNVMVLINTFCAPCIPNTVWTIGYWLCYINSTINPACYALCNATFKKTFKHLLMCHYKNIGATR

[7] = target: T5, Muscarinic acetylcholine receptor M1 (Rattus norvegicus, UniProt P08482); assay: Agonist activity at rat muscarinic M1 receptor expressed in CHO cells
T5 sequence (P08482 whole entry): T1 sequence (whole entry)

Chain of Muscarinic acetylcholine receptor M3 (P08483 whole entry): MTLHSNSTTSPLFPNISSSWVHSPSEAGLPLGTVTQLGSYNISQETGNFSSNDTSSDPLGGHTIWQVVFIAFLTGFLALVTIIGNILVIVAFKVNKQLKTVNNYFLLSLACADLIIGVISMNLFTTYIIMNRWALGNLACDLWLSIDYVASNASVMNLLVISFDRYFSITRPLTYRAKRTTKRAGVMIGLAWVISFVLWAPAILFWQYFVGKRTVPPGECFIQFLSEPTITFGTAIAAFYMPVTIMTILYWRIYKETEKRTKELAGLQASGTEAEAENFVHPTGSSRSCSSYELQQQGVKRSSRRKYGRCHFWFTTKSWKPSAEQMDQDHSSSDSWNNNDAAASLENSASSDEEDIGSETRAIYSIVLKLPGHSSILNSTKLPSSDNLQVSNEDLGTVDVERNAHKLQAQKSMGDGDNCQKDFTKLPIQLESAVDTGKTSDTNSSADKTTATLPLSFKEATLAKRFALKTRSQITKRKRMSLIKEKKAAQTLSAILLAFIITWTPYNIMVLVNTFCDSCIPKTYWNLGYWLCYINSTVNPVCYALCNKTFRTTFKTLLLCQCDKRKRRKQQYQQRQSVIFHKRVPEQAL

Structure (SMILES)	activation [1]	Emax [2]	EC50 [3]	EC50 [4]	EC50 [5]	EC50 [6]	EC50 [7]
CCOC(=O)N1CCC(N2C[C@@H]3C[C@H]2CN3C(=O)c2ccccc2C)CC1	< 30%						
CCOC(=O)N1CCC(N2CCC[C@@H](NC(=O)c3ccccc3Cl)C2)CC1		57%	> 10 µM	> 10 µM	> 10 µM	> 10 µM	
CCOC(=O)N1CCC(N2CCC[C@@H](NC(=O)C3CCCC3)C2)CC1		35%	> 10 µM	> 10 µM	> 10 µM	> 10 µM	
CCOC(=O)N1CCC(N2CCC[C@@H](NC(=O)C3CCCCC3)C2)CC1		44%	> 10 µM	> 10 µM	> 10 µM	> 10 µM	
CCOC(=O)N1CCC(N2CCN(C(=O)c3ccccc3C)CC2)CC1	< 30%						
CCOC(=O)N1CCC(N[C@@H]2CCN(C(=O)c3ccccc3C)C2)CC1	< 30%						
CCOC(=O)N1CCC(N2CCC[C@H](NC(=O)c3ccccc3C)C2)CC1	inactive						
CCOC(=O)N1CCC(N2CCC[C@@H](NC(=O)c3cccc(F)c3)C2)CC1		92%	> 10 µM	> 10 µM	> 10 µM	> 10 µM	140 nM
CCOC(=O)N1CCC(N2CCC[C@@H](NC(=O)c3cccs3)C2)CC1		61%	> 10 µM	> 10 µM	> 10 µM	> 10 µM	
CCOC(=O)N1CCC(N2CCC[C@@H](NC(=O)c3ccccc3)C2)CC1		91%	> 10 µM	> 10 µM	> 10 µM	> 10 µM	130 nM
CCOC(=O)N1CCC(N2CCC[C@@H](NC(=O)c3ccc(C)cc3)C2)CC1		41%	> 10 µM	> 10 µM	> 10 µM	> 10 µM	
CCOC(=O)N1CCC(N[C@H]2CCN(C(=O)c3ccccc3C)C2)CC1	< 30%						
CCOC(=O)N1CCC(N2CCC[C@@H](NC(=O)c3cccc(OC)c3)C2)CC1		91%	> 10 µM	> 10 µM	> 10 µM	> 10 µM	250 nM
CCOC(=O)N1CCC(N2CC[C@H](NC(=O)c3ccccc3C)C2)CC1	< 30%						
CCOC(=O)N1CCC(N2CCC[C@@H](NC(=O)c3ccc(OC)cc3)C2)CC1		63%	> 10 µM	> 10 µM	> 10 µM	> 10 µM	
CCOC(=O)N1CCC(N2CC[C@@H](NC(=O)c3ccccc3C)C2)CC1	< 30%						
CCOC(=O)N1CCC(N2C[C@H]3CN(C(=O)c4ccccc4C)C[C@H]3C2)CC1	< 30%						
CCOC(=O)N1CCC(N2CCC[C@@H](NC(=O)c3ccc(F)cc3C)C2)CC1		77%	> 10 µM	> 10 µM	> 10 µM	> 10 µM	60 nM
CCOC(=O)N1CCC(N2CCC[C@@H](NC(=O)c3ccc(F)c(F)c3)C2)CC1		84%	> 10 µM	> 10 µM	> 10 µM	> 10 µM	
